Test results from US6689773B2, “Uracil substituted phenyl sulfamoyl carboxamides” (BASF Aktiengesellschaft, priority 2000, dated 2004).

What was measured:
Type in all cases: in vivo
[1] = tested on: TRZAW, Winter wheat, Tritium Aestivum, L. (Winter); assay: Postemergence herbicidal evaluation (Example 147); conditions: rating scale 0-9, two to three weeks after treatment
In short: (§1)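 Values are 0-9 visual scores, averaged over repeat tests where available. Seedlings of about two weeks were sprayed with roughly 0.016 to 0.032 kg/ha in 80/20 acetone/water plus 1.0% seed oil, then held in the greenhouse two to three weeks.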

[2] = tested on: ZEAMX, Field corn, Zea mays L.; assay: Postemergence herbicidal evaluation (Example 147); conditions: rating scale 0-9, two to three weeks after treatment
In short: as §1

[3] = tested on: CHEAL, Lambsquarters, Chenopodium album, L. Common; assay: Postemergence herbicidal evaluation (Example 147); conditions: rating scale 0-9, two to three weeks after treatment
In short: as §1

[4] = tested on: ALOMY, Blackgrass, Alopecurus myosuroides; assay: Postemergence herbicidal evaluation (Example 147); conditions: rating scale 0-9, two to three weeks after treatment
In short: as §1

[5] = tested on: IPOHE, Morningglory, Ivyleaf, Ipomoea hederacea, (L)Jacq.; assay: Postemergence herbicidal evaluation (Example 147); conditions: rating scale 0-9, two to three weeks after treatment
In short: as §1

[6] = tested on: AMBEL, Ragweed, Common, Ambrosia artemiisifolia, L.; assay: Postemergence herbicidal evaluation (Example 147); conditions: rating scale 0-9, two to three weeks after treatment
In short: as §1

[7] = tested on: GLXMA, Soybean, Glycine max, (L.) Merr.; assay: Postemergence herbicidal evaluation (Example 147); conditions: rating scale 0-9, two to three weeks after treatment
In short: as §1

[8] = tested on: SETVI, Green foxtail, Setaria viridis, (L.)Beau; assay: Postemergence herbicidal evaluation (Example 147); conditions: rating scale 0-9, two to three weeks after treatment
In short: as §1

[9] = tested on: XANST, Cocklebur, Xanthium strumariam; assay: Postemergence herbicidal evaluation (Example 147); conditions: rating scale 0-9, two to three weeks after treatment
In short: as §1

[10] = tested on: DIGSA, Crabgrass, (Hairy) L, Digitaria sanguinalis, (L)Scop; assay: Postemergence herbicidal evaluation (Example 147); conditions: rating scale 0-9, two to three weeks after treatment
In short: as §1

[11] = tested on: ABUTH, Velvetleaf, Abutilon theophrasti, Medic.; assay: Postemergence herbicidal evaluation (Example 147); conditions: rating scale 0-9, two to three weeks after treatment
In short: as §1

[12] = tested on: ECHCG, Barnyardgrass, Echinochloa crusgalli, (L.)Beau; assay: Postemergence herbicidal evaluation (Example 147); conditions: rating scale 0-9, two to three weeks after treatment
In short: as §1

[13] = tested on: TRZAW, Winter wheat, Tritium Aestivum, L. (Winter); assay: Preemergence herbicidal evaluation (Example 148); conditions: rating scale 0-9, two to four weeks after treatment
In short: (§2)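 Following sowing, cups received a soil spray of the compound dissolved in aqueous acetone, dosed to about 0.125 to 0.250 kg per hectare. Growth continued in the greenhouse under routine care before visual scoring at two to four weeks.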

[14] = tested on: ZEAMX, Field corn, Zea mays L.; assay: Preemergence herbicidal evaluation (Example 148); conditions: rating scale 0-9, two to four weeks after treatment
In short: as §2

[15] = tested on: CHEAL, Lambsquarters, Chenopodium album, L. Common; assay: Preemergence herbicidal evaluation (Example 148); conditions: rating scale 0-9, two to four weeks after treatment
In short: as §2

[16] = tested on: ALOMY, Blackgrass, Alopecurus myosuroides; assay: Preemergence herbicidal evaluation (Example 148); conditions: rating scale 0-9, two to four weeks after treatment
In short: as §2

[17] = tested on: IPOHE, Morningglory, Ivyleaf, Ipomoea hederacea, (L)Jacq.; assay: Preemergence herbicidal evaluation (Example 148); conditions: rating scale 0-9, two to four weeks after treatment
In short: as §2

[18] = tested on: AMBEL, Ragweed, Common, Ambrosia artemiisifolia, L.; assay: Preemergence herbicidal evaluation (Example 148); conditions: rating scale 0-9, two to four weeks after treatment
In short: as §2

[19] = tested on: GLXMA, Soybean, Glycine max, (L.) Merr.; assay: Preemergence herbicidal evaluation (Example 148); conditions: rating scale 0-9, two to four weeks after treatment
In short: as §2

[20] = tested on: SETVI, Green foxtail, Setaria viridis, (L.)Beau; assay: Preemergence herbicidal evaluation (Example 148); conditions: rating scale 0-9, two to four weeks after treatment
In short: as §2

[21] = tested on: XANST, Cocklebur, Xanthium strumariam; assay: Preemergence herbicidal evaluation (Example 148); conditions: rating scale 0-9, two to four weeks after treatment
In short: as §2

[22] = tested on: DIGSA, Crabgrass, (Hairy) L, Digitaria sanguinalis, (L)Scop; assay: Preemergence herbicidal evaluation (Example 148); conditions: rating scale 0-9, two to four weeks after treatment
In short: as §2

[23] = tested on: ABUTH, Velvetleaf, Abutilon theophrasti, Medic.; assay: Preemergence herbicidal evaluation (Example 148); conditions: rating scale 0-9, two to four weeks after treatment
In short: as §2

[24] = tested on: ECHCG, Barnyardgrass, Echinochloa crusgalli, (L.)Beau; assay: Preemergence herbicidal evaluation (Example 148); conditions: rating scale 0-9, two to four weeks after treatment
In short: as §2

Compound: CNS(=O)(=O)NC(=O)c1cc(-n2c(=O)cc(C(F)(F)F)n(C)c2=O)c(F)cc1Cl [Example 56]
- Postemergence herbicidal rating TRZAW ([1]; rate 0.016 kg/ha): 4.0
- Postemergence herbicidal rating TRZAW ([1]; rate 0.032 kg/ha): 5.0
- Postemergence herbicidal rating ZEAMX ([2]; rate 0.016 kg/ha): 7.5
- Postemergence herbicidal rating ZEAMX ([2]; rate 0.032 kg/ha): 8.0
- Postemergence herbicidal rating CHEAL ([3]; rate 0.016 kg/ha): 7.0
- Postemergence herbicidal rating CHEAL ([3]; rate 0.032 kg/ha): 7.0
- Postemergence herbicidal rating ALMOY ([4]; rate 0.016 kg/ha): 2.0
- Postemergence herbicidal rating ALMOY ([4]; rate 0.032 kg/ha): 2.0
- Postemergence herbicidal rating IPOHE ([5]; rate 0.016 kg/ha): 9.0
- Postemergence herbicidal rating IPOHE ([5]; rate 0.032 kg/ha): 9.0
- Postemergence herbicidal rating AMBEL ([6]; rate 0.016 kg/ha): 8.0
- Postemergence herbicidal rating AMBEL ([6]; rate 0.032 kg/ha): 9.0
- Postemergence herbicidal rating GLXMA ([7]; rate 0.016 kg/ha): 8.5
- Postemergence herbicidal rating GLXMA ([7]; rate 0.032 kg/ha): 8.5
- Postemergence herbicidal rating SETVI ([8]; rate 0.016 kg/ha): 6.0
- Postemergence herbicidal rating SETVI ([8]; rate 0.032 kg/ha): 7.0
- Postemergence herbicidal rating XANST ([9]; rate 0.016 kg/ha): 9.0
- Postemergence herbicidal rating XANST ([9]; rate 0.032 kg/ha): 9.0
- Postemergence herbicidal rating DIGSA ([10]; rate 0.016 kg/ha): 3.0
- Postemergence herbicidal rating DIGSA ([10]; rate 0.032 kg/ha): 5.0
- Postemergence herbicidal rating ABUTH ([11]; rate 0.016 kg/ha): 9.0
- Postemergence herbicidal rating ABUTH ([11]; rate 0.032 kg/ha): 9.0
- Postemergence herbicidal rating ECHCG ([12]; rate 0.016 kg/ha): 7.0
- Postemergence herbicidal rating ECHCG ([12]; rate 0.032 kg/ha): 7.0
- Preemergence herbicidal rating TRZAW ([13]; rate 0.125 kg/ha): 0.0
- Preemergence herbicidal rating TRZAW ([13]; rate 0.25 kg/ha): 0.0
- Preemergence herbicidal rating ZEAMX ([14]; rate 0.125 kg/ha): 0.0
- Preemergence herbicidal rating ZEAMX ([14]; rate 0.25 kg/ha): 2.0
- Preemergence herbicidal rating CHEAL ([15]; rate 0.125 kg/ha): 9.0
- Preemergence herbicidal rating CHEAL ([15]; rate 0.25 kg/ha): 9.0
- Preemergence herbicidal rating ALMOY ([16]; rate 0.125 kg/ha): 0.0
- Preemergence herbicidal rating ALMOY ([16]; rate 0.25 kg/ha): 0.0
- Preemergence herbicidal rating IPOHE ([17]; rate 0.125 kg/ha): 8.0
- Preemergence herbicidal rating IPOHE ([17]; rate 0.25 kg/ha): 9.0
- Preemergence herbicidal rating AMBEL ([18]; rate 0.125 kg/ha): 9.0
- Preemergence herbicidal rating AMBEL ([18]; rate 0.25 kg/ha): 9.0
- Preemergence herbicidal rating GLXMA ([19]; rate 0.125 kg/ha): 2.0
- Preemergence herbicidal rating GLXMA ([19]; rate 0.25 kg/ha): 9.0
- Preemergence herbicidal rating SETVI ([20]; rate 0.125 kg/ha): 4.0
- Preemergence herbicidal rating SETVI ([20]; rate 0.25 kg/ha): 8.0
- Preemergence herbicidal rating XANST ([21]; rate 0.125 kg/ha): 8.0
- Preemergence herbicidal rating XANST ([21]; rate 0.25 kg/ha): 9.0
- Preemergence herbicidal rating DIGSA ([22]; rate 0.125 kg/ha): 7.0
- Preemergence herbicidal rating DIGSA ([22]; rate 0.25 kg/ha): 7.0
- Preemergence herbicidal rating ABUTH ([23]; rate 0.125 kg/ha): 9.0
- Preemergence herbicidal rating ABUTH ([23]; rate 0.25 kg/ha): 9.0
- Preemergence herbicidal rating ECHCG ([24]; rate 0.125 kg/ha): 3.0
- Preemergence herbicidal rating ECHCG ([24]; rate 0.25 kg/ha): 7.0

Compound: CN(Cc1ccccc1)S(=O)(=O)NC(=O)c1cc(-n2c(=O)cc(C(F)(F)F)n(C)c2=O)c(F)cc1Cl [Example 61]
- Postemergence herbicidal rating TRZAW ([1]; rate 0.016 kg/ha): 6.0
- Postemergence herbicidal rating TRZAW ([1]; rate 0.032 kg/ha): 6.5
- Postemergence herbicidal rating ZEAMX ([2]; rate 0.016 kg/ha): 7.5
- Postemergence herbicidal rating ZEAMX ([2]; rate 0.032 kg/ha): 7.5
- Postemergence herbicidal rating CHEAL ([3]; rate 0.016 kg/ha): 9.0
- Postemergence herbicidal rating CHEAL ([3]; rate 0.032 kg/ha): 8.0
- Postemergence herbicidal rating ALMOY ([4]; rate 0.016 kg/ha): 1.0
- Postemergence herbicidal rating ALMOY ([4]; rate 0.032 kg/ha): 1.0
- Postemergence herbicidal rating IPOHE ([5]; rate 0.016 kg/ha): 8.0
- Postemergence herbicidal rating IPOHE ([5]; rate 0.032 kg/ha): 9.0
- Postemergence herbicidal rating AMBEL ([6]; rate 0.016 kg/ha): 9.0
- Postemergence herbicidal rating AMBEL ([6]; rate 0.032 kg/ha): 9.0
- Postemergence herbicidal rating GLXMA ([7]; rate 0.016 kg/ha): 8.5
- Postemergence herbicidal rating GLXMA ([7]; rate 0.032 kg/ha): 8.5
- Postemergence herbicidal rating SETVI ([8]; rate 0.016 kg/ha): 7.0
- Postemergence herbicidal rating SETVI ([8]; rate 0.032 kg/ha): 9.0
- Postemergence herbicidal rating XANST ([9]; rate 0.016 kg/ha): 9.0
- Postemergence herbicidal rating XANST ([9]; rate 0.032 kg/ha): 9.0
- Postemergence herbicidal rating DIGSA ([10]; rate 0.016 kg/ha): 7.0
- Postemergence herbicidal rating DIGSA ([10]; rate 0.032 kg/ha): 6.0
- Postemergence herbicidal rating ABUTH ([11]; rate 0.016 kg/ha): 9.0
- Postemergence herbicidal rating ABUTH ([11]; rate 0.032 kg/ha): 9.0
- Postemergence herbicidal rating ECHCG ([12]; rate 0.016 kg/ha): 7.0
- Postemergence herbicidal rating ECHCG ([12]; rate 0.032 kg/ha): 8.0
- Preemergence herbicidal rating TRZAW ([13]; rate 0.125 kg/ha): 2.0
- Preemergence herbicidal rating TRZAW ([13]; rate 0.25 kg/ha): 3.0
- Preemergence herbicidal rating ZEAMX ([14]; rate 0.125 kg/ha): 2.0
- Preemergence herbicidal rating ZEAMX ([14]; rate 0.25 kg/ha): 2.0
- Preemergence herbicidal rating CHEAL ([15]; rate 0.125 kg/ha): 9.0
- Preemergence herbicidal rating CHEAL ([15]; rate 0.25 kg/ha): 9.0
- Preemergence herbicidal rating ALMOY ([16]; rate 0.125 kg/ha): 0.0
- Preemergence herbicidal rating ALMOY ([16]; rate 0.25 kg/ha): 0.0
- Preemergence herbicidal rating IPOHE ([17]; rate 0.125 kg/ha): 9.0
- Preemergence herbicidal rating IPOHE ([17]; rate 0.25 kg/ha): 9.0
- Preemergence herbicidal rating AMBEL ([18]; rate 0.125 kg/ha): 9.0
- Preemergence herbicidal rating AMBEL ([18]; rate 0.25 kg/ha): 9.0
- Preemergence herbicidal rating GLXMA ([19]; rate 0.125 kg/ha): 9.0
- Preemergence herbicidal rating GLXMA ([19]; rate 0.25 kg/ha): 9.0
- Preemergence herbicidal rating SETVI ([20]; rate 0.125 kg/ha): 3.0
- Preemergence herbicidal rating SETVI ([20]; rate 0.25 kg/ha): 6.0
- Preemergence herbicidal rating XANST ([21]; rate 0.125 kg/ha): 9.0
- Preemergence herbicidal rating XANST ([21]; rate 0.25 kg/ha): 9.0
- Preemergence herbicidal rating DIGSA ([22]; rate 0.125 kg/ha): 6.0
- Preemergence herbicidal rating DIGSA ([22]; rate 0.25 kg/ha): 9.0
- Preemergence herbicidal rating ABUTH ([23]; rate 0.125 kg/ha): 9.0
- Preemergence herbicidal rating ABUTH ([23]; rate 0.25 kg/ha): 9.0
- Preemergence herbicidal rating ECHCG ([24]; rate 0.125 kg/ha): 4.0
- Preemergence herbicidal rating ECHCG ([24]; rate 0.25 kg/ha): 7.0
